Source: patent US11478527B2, “FGF receptor ligands for treating diabetes and obesity” (Albert Einstein College of Medicine, priority 2015, dated 2022)

What was measured:
HFD-fed mice [1] = conditions: U0126 thirty minutes before FGF19 injection
Description: ERK1/2 signaling involved in FGF19-glucose metabolism regulation. […] Mice were treated twice with FGF19 (starting 16 hours after fasting and 6.5 hours apart) and tissues were collected 90 minutes after the last ip injection (2C) Analysis of co-localization between Npy-hrGFP positive neurons (lighter gray) and p-ERK1/2 positive cells (darker gray) in 24 h fasted ob/ob Npy-hrGFP mice following intraperitoneal injections of FGF19. (2D) Quantification of Npy-hrGFP positive neurons that colocalize with pERK1/2 staining in ARC (Bregma −1.7 to −1.9 mm) of ob/ob Npy-hrGFP mice (10 sections from 3 mice were examined in each group). (2E) Representative sections showing absence of co-localization between Pomc-eGFP positive neurons (lighter gray) and p-ERK1/2 positive cells (darker gray) in 24 h fasted ob/ob Pomc-eGFP mice following intraperitoneal injections of FGF19. *P<0.05, ***P<0.005.
It was assessed whether increased ERK1/2 activation could mediate the glucose lowering effect of FGF19.

8 month old outbred mice = experiment: Oral glucose tolerance test after intraparenchymal injection of peptide into the mediobasal hypothalamus; assay type: in vivo
Description: A peptide of 13 amino acids ([…]) (SEQ ID NO:4) was synthesized based on the conserved sequences between the FGF8 and FGF17 b splice isoforms and the helical nature of this region of FGF8 based on a published crystal structure. This peptide was injected intraparenchymally into the mediobasal hypothalamus of 8 month old outbred mice. Having been fasted overnight, the mice were subjected to an oral glucose tolerance test (2 mg/g of glucose) using a crossover design to obtain a control condition. […] With aCSF, the median area under the curve for the 3 hour GTT was 43,747 mg-min/dL whereas it was […] with F8b13. Blood glucose concentrations were not different before the glucose load. These FGF derived peptide antagonists are useful as therapeutic agents in diabetes and obesity conditions.

AGRP/NPY neurons = experiment: Colocalization of phospho-ERK1/2 with Npy-GFP in ARC after intraperitoneal FGF19; assay type: in vivo; conditions: 24 h fasted Npy-hrGFP ob/ob mice
Description: FIG. 2A-2E. ERK1/2 signaling involved in FGF19-glucose metabolism regulation.
The neuronal population targeted by FGF19 was investigated. 24 h fasted Npy-hrGFP transgenic mice deficient in leptin (Npy-hrGFP ob/ob), in which AGRP/NPY neurons in ARC appear GFP+, were injected intraperitoneally with FGF19 and the colocalization between phospho-ERK1/2 and Npy-GFP was analyzed in ARC. […] Overall, the data support that central FGF19 improved glucose metabolism required activation of ERK1/2 signaling and that AGRP/NPY neurons are a likely mediator of FGF19 action.

POMC neurons = experiment: Colocalization of phospho-ERK1/2 with Pomc-eGFP in ARC after intraperitoneal FGF19; assay type: in vivo; conditions: 24 h fasted Pomc-eGFP ob/ob mice
HFD-fed mice [2] = conditions: FGF19 injected centrally and peripherally; previously shown (3); cited from earlier work
[3] = tested on: hypothalamic AGRP/NPY neurons; conditions: cited from earlier work

Q: Which “effect of U0126 pre-treatment on the glucose lowering effect of FGF19” value (HFD-fed mice [1]) does the source give for `N#CC(=C(/N)Sc1ccccc1N)/C(C#N)=C(\N)Sc1ccccc1N` [U0126] here?
A: blocked the glucose lowering effect of FGF19

Q: For “PNFTQHVREQSLV (peptide fragment based on human sequence) [F8b13]”, which “glucose tolerance compared to the same mice after aCSF” value (8 month old outbred mice; oral GTT 2 mg/g glucose, overnight fast, crossover design) is on record?
A: improved glucose tolerance

Q: And the median area under the curve for the 3 hour GTT (8 month old outbred mice; oral GTT 2 mg/g glucose, overnight fast, crossover vs aCSF, intraparenchymal injection into mediobasal hypothalamus)?
A: 33500 mg·min/dL

Q: And the “blood glucose concentrations before the glucose load” value (8 month old outbred mice; overnight fasted, vs aCSF)?
A: not different

Q: For “FGF19: endocrine fibroblast growth factor”, which “colocalization of FGF19-induced pERK1/2 staining with NPY-GFP+ neurons in ARC” value (AGRP/NPY neurons) is on record?
A: colocalized with NPY-GFP+ neurons

Q: And the “colocalization of Pomc-eGFP positive neurons with pERK1/2 staining in ARC” value (POMC neurons)?
A: do not colocalize

Q: And the “glucose handling in obese mice (ob/ob) and high fat fed mice” value (HFD-fed mice [2])?
A: could improve glucose handling

Q: What about the “induction of AGRP and NPY mRNA” value ([3]; mice fasted overnight) of the same compound?
A: prevented the induction of AGRP and NPY mRNA

Q: And the “ERK1/2 activation in hypothalamic AGRP/NPY neurons” value ([3]; mouse, in vivo)?
A: activated ERK1/2

Q: And the “FOS in hypothalamic AGRP/NPY neurons” value ([3]; mouse, in vivo)?
A: FOS was reduced

Q: And the “effects on POMC neurons” value ([3]; mouse, in vivo)?
A: no effects
